Molecules are shown by their SMILES.

The test deals with T1, EPSPS (5-enolpyruvlshikimate-3-phosphate synthase), Golf biotypes.
T1 construct: native enzyme in leaf extract, not purified to homogeneity
Nature of the test: EPSPS activity in leaf extract, phosphate release (EnzChek Phosphate Assay). Conditions: S-Golf biotype; 0-1000 μM glyphosate; log-logistic fit; unit from Methods (table footnote with unit not in the material); read-out: EPSPS activity^c / I50. The test is classed as biochemical, Lolium perenne. The source says: EPSPS activity in leaf extract, phosphate release (EnzChek Phosphate Assay) on EPSPS (5-enolpyruvlshikimate-3-phosphate synthase), Golf biotypes

With `O=C(O)CNCP(=O)(O)O` [glyphosate, N-phosphonomethyl glycine], the IC50 was 3.2 ± 0.3 µM.

Values taken from article PMC5651048, “Differential Resistance Mechanisms to Glyphosate Result in Fitness Cost for Lolium perenne and L. multiflorum” (Frontiers in Plant Science, 2017).
